Data published in article PMC11079024, “Identification of a family of species-selective complex I inhibitors as potential anthelmintics” (Nature Communications, 2024).
Values joined by “and” are separate entries in the source; they are usually repeats but may differ in a detail not shown here. Identical values can stand only once. Like-named read-outs stand apart in the source and are kept apart here.

Columns and labels:
[1] = molecular target: B. taurus (heart) complex I (Bos taurus, UniProt P03887+P17694+P42026); test: biochemical; assay type: biochemical; conditions: for activity at 0.0001 µM / Complex I activity, dose-response data / activity at 0.0005 µM / activity at 0.001 µM / activity at 0.0025 µM / activity at 0.005 µM / activity at 0.013 µM / activity at 0.025 µM / activity at 0.063 µM / activity at 0.125 µM / activity at 0.313 µM / activity at 0.625 µM / activity at 1.5 µM / activity at 3 µM / activity at 15 µM / activity at 37.5 µM / activity at 75 µM: B. taurus; for activity at 0.0001 µM / activity at 0.0005 µM / activity at 0.001 µM / activity at 0.0025 µM / activity at 0.005 µM / activity at 0.013 µM / activity at 0.025 µM / activity at 0.063 µM / activity at 0.125 µM / activity at 0.313 µM / activity at 0.625 µM / activity at 1.5 µM / activity at 3 µM / activity at 15 µM / activity at 37.5 µM / activity at 75 µM: read-out: Complex I activity, dose-response data; for IC50: heart mitochondria, read-out: B. taurus Complex I IC50
Summary of the method: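 Complex I activity followed as DCIP reduction (600 nm, 30 s reads, 15 min) with 80 μM NADH and 60 μM decylubiquinone in 25 mM KPi pH 7.5 containing 2 μM antimycin A and 2 mM KCN. Freeze-thawed mouse or bovine heart mitochondria at 0.2 mg/mL; initial-rate percent of solvent control, single-point 100 μM or dose-response.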

in vitro = conditions: human, HEK293 Cell Viability Assay LC50, 2 days exposure
L1 wild-type C. elegans = test: whole plant or invertebrate; conditions: Caenorhabditis elegans, 15 h, read-out: C. elegans KCN Survival Assay LC50
[2] = dose 0.0001 µM, Mean of replicates
[3] = dose 0.0001 µM, individual replicates (Rep)
[4] = dose 0.0005 µM, Mean of replicates
[5] = dose 0.0005 µM, individual replicates (Rep)
[6] = dose 0.001 µM, Mean of replicates
[7] = dose 0.001 µM, individual replicates (Rep)
[8] = dose 0.0025 µM, Mean of replicates
[9] = dose 0.0025 µM, individual replicates (Rep)
[10] = dose 0.005 µM, Mean of replicates
[11] = dose 0.005 µM, individual replicates (Rep)
[12] = dose 0.013 µM, Mean of replicates
[13] = dose 0.013 µM, individual replicates (Rep)
[14] = dose 0.025 µM, Mean of replicates
[15] = dose 0.025 µM, individual replicates (Rep)
[16] = dose 0.063 µM, Mean of replicates
[17] = dose 0.063 µM, individual replicates (Rep)
[18] = dose 0.125 µM, Mean of replicates
[19] = dose 0.125 µM, individual replicates (Rep)
[20] = dose 0.313 µM, Mean of replicates
[21] = dose 0.313 µM, individual replicates (Rep)
[22] = dose 0.625 µM, Mean of replicates
[23] = dose 0.625 µM, individual replicates (Rep)
[24] = dose 1.5 µM, Mean of replicates
[25] = dose 1.5 µM, individual replicates (Rep)
[26] = dose 3 µM, individual replicates (Rep)
[27] = dose 15 µM, individual replicates (Rep)
[28] = dose 37.5 µM, Mean of replicates
[29] = dose 37.5 µM, individual replicates (Rep)
[30] = dose 75 µM, individual replicates (Rep)

Chain of B. taurus (heart) complex I (P03887 whole entry): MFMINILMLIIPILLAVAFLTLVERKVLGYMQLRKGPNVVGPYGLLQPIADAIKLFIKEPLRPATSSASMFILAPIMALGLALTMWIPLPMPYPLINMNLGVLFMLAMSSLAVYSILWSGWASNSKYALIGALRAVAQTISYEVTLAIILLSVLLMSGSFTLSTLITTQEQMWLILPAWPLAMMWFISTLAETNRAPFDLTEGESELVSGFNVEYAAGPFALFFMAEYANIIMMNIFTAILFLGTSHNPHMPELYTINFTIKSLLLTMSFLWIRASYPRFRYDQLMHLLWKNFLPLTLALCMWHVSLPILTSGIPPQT
Chain of B. taurus (heart) complex I (P17694 34-463): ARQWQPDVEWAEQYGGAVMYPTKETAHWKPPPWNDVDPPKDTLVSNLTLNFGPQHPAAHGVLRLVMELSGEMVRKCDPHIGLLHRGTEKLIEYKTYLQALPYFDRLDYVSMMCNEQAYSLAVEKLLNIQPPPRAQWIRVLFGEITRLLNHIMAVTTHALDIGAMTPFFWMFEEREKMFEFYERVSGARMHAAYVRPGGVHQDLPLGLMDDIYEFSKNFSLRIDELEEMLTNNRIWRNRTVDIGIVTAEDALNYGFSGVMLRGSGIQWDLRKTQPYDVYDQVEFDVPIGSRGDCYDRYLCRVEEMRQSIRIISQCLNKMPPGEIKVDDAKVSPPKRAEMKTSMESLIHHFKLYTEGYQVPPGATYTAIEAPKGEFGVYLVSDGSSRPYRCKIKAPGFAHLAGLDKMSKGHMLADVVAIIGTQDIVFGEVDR
Chain of B. taurus (heart) complex I (P42026 38-216): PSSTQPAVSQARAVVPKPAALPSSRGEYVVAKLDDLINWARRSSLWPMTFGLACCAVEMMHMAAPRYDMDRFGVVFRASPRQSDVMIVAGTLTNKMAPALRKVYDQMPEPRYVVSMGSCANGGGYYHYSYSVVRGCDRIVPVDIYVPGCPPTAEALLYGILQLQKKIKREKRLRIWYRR

Which results are given for `COc1cc2c(cc1OC)C(C(C)c1ccc(CC(C)C)cc1)=NCC2` (centres unmarked) [NPD10504]?
activity at 0.0001 µM [1, 2]: 107%; Complex I activity, dose-response data [1, 3]: 117.793 and 105.069 and 91.702 and 112.227; activity at 0.0005 µM [1, 4]: 106%; Complex I activity, dose-response data [1, 5]: 109.504 and 97.187 and 111.197; activity at 0.0005 µM [1, 5]: 106%; activity at 0.001 µM [1, 6]: 99.9%; Complex I activity, dose-response data [1, 7]: 98.069 and 105.385 and 87.764 and 108.494; activity at 0.0025 µM [1, 8]: 103%; Complex I activity, dose-response data [1, 9]: 100.000 and 97.046 and 110.425; activity at 0.0025 µM [1, 9]: 106%; activity at 0.005 µM [1, 10]: 95.2%; Complex I activity, dose-response data [1, 11]: 92.608 and 94.796 and 95.624; activity at 0.005 µM [1, 11]: 97.7%; activity at 0.013 µM [1, 12]: 101%; Complex I activity, dose-response data [1, 13]: 117.931 and 88.068 and 92.546 and 105.663; activity at 0.025 µM [1, 14]: 101%; Complex I activity, dose-response data [1, 15]: 94.298 and 94.233 and 109.524; activity at 0.025 µM [1, 15]: 107%; activity at 0.063 µM [1, 16]: 90.7%; Complex I activity, dose-response data [1, 17]: 92.397 and 91.561 and 90.734; activity at 0.063 µM [1, 17]: 88%; activity at 0.125 µM [1, 18]: 83.6%; Complex I activity, dose-response data [1, 19]: 80.676 and 85.091 and 80.824; activity at 0.125 µM [1, 19]: 87.9%; activity at 0.313 µM [1, 20]: 98%; Complex I activity, dose-response data [1, 21]: 97.994 and 101.828 and 86.358; activity at 0.313 µM [1, 21]: 106%; activity at 0.625 µM [1, 22]: 101%; Complex I activity, dose-response data [1, 23]: 121.834 and 83.881 and 99.417 and 98.267; activity at 1.5 µM [1, 24]: 96.4%; Complex I activity, dose-response data [1, 25]: 115.721 and 89.117 and 89.942 and 90.667; activity at 3 µM ([1]; dose 3 µM, Mean of replicates): 85.9%; Complex I activity, dose-response data [1, 26]: 100.146 and 69.610 and 88.192 and 85.467; activity at 15 µM ([1]; dose 15 µM, Mean of replicates): 36.5%; Complex I activity, dose-response data [1, 27]: 38.809 and 32.507 and 35.200; activity at 15 µM [1, 27]: 39.3%; activity at 37.5 µM [1, 28]: 5.69%; Complex I activity, dose-response data [1, 29]: 3.348 and 10.986 and 0.292 and 8.133; activity at 75 µM ([1]; dose 75 µM, Mean of replicates): 3.63%; Complex I activity, dose-response data [1, 30]: 0.000 and 11.602 and 2.933; IC50 [1]: 11.3 µM; CC50 at 2 days (in vitro): 36.6 µM; LC50 (L1 wild-type C. elegans): 15.6 µM

For `COc1cc2c(cc1OC)C(c1ccc(-c3ccc(Cl)c(Cl)c3)o1)=NCC2` [NPD3577], which activity at 0.0001 µM [1, 2] is on record?
Its activity at 0.0001 µM is 105%.

And the “Complex I activity, dose-response data” value [1, 3]?
The value was 103.121 and 101.731 and 110.652.

What about the activity at 0.0001 µM [1, 3] of the same molecule?
The activity at 0.0001 µM was 106%.

What about the activity at 0.0005 µM [1, 4] of the same molecule?
The activity at 0.0005 µM was 100%.

What about the activity at 0.0005 µM [1, 5] of the same molecule?
The activity at 0.0005 µM was 100%.

What about the activity at 0.001 µM [1, 6] of the same molecule?
The activity at 0.001 µM was 106%.

And the “Complex I activity, dose-response data” value [1, 7]?
Its value is 115.208 and 104.399 and 94.945 and 110.770.

What about the activity at 0.0025 µM [1, 8] of the same molecule?
The activity at 0.0025 µM was 109%.

What about the “Complex I activity, dose-response data” value [1, 9] of the same molecule?
The value was 105.176 and 104.207 and 109.459.

What about the activity at 0.0025 µM [1, 9] of the same molecule?
Its activity at 0.0025 µM is 117%.

And the activity at 0.005 µM [1, 10]?
Its activity at 0.005 µM is 109%.

And the “Complex I activity, dose-response data” value [1, 11]?
Its value is 109.688 and 97.845 and 112.943.

What about the activity at 0.005 µM [1, 11] of the same molecule?
Its activity at 0.005 µM is 116%.

What about the activity at 0.013 µM [1, 12] of the same molecule?
Its activity at 0.013 µM is 106%.

And the “Complex I activity, dose-response data” value [1, 13]?
Its value is 116.009 and 85.825 and 105.823 and 114.478.

What about the activity at 0.025 µM [1, 14] of the same molecule?
The activity at 0.025 µM was 115%.

What about the “Complex I activity, dose-response data” value [1, 15] of the same molecule?
The value was 117.057 and 109.262 and 110.097.

And the activity at 0.025 µM [1, 15]?
The activity at 0.025 µM was 124%.

What about the activity at 0.063 µM [1, 16] of the same molecule?
Its activity at 0.063 µM is 111%.

What about the “Complex I activity, dose-response data” value [1, 17] of the same molecule?
The value was 116.393 and 107.485 and 112.565.

And the activity at 0.063 µM [1, 17]?
Its activity at 0.063 µM is 107%.

And the activity at 0.125 µM [1, 18]?
The activity at 0.125 µM was 106%.

And the “Complex I activity, dose-response data” value [1, 19]?
Its value is 115.491 and 103.072 and 105.491.

What about the activity at 0.125 µM [1, 19] of the same molecule?
The activity at 0.125 µM was 100%.

What about the activity at 0.313 µM [1, 20] of the same molecule?
The activity at 0.313 µM was 109%.

And the “Complex I activity, dose-response data” value [1, 21]?
The value was 109.249 and 104.276 and 103.070.

What about the activity at 0.313 µM [1, 21] of the same molecule?
The activity at 0.313 µM was 118%.

And the activity at 0.625 µM [1, 22]?
The activity at 0.625 µM was 99%.

And the “Complex I activity, dose-response data” value [1, 23]?
Its value is 89.823 and 107.117 and 107.828.

What about the activity at 0.625 µM [1, 23] of the same molecule?
The activity at 0.625 µM was 91.2%.

What about the activity at 1.5 µM [1, 24] of the same molecule?
The activity at 1.5 µM was 100%.

What about the activity at 1.5 µM [1, 25] of the same molecule?
Its activity at 1.5 µM is 100%.

And the activity at 3 µM ([1]; dose 3 µM, Mean of replicates)?
The activity at 3 µM was 95.5%.

What about the “Complex I activity, dose-response data” value [1, 26] of the same molecule?
Its value is 93.418 and 99.797 and 99.095.

What about the activity at 3 µM [1, 26] of the same molecule?
The activity at 3 µM was 89.6%.

What about the activity at 15 µM ([1]; dose 15 µM, Mean of replicates) of the same molecule?
The activity at 15 µM was 43.4%.

And the “Complex I activity, dose-response data” value [1, 27]?
The value was 55.501 and 46.406 and 43.941 and 27.922.

What about the activity at 37.5 µM [1, 28] of the same molecule?
Its activity at 37.5 µM is 26.1%.

And the “Complex I activity, dose-response data” value [1, 29]?
The value was 16.844 and 31.768 and 25.172.

And the activity at 37.5 µM [1, 29]?
Its activity at 37.5 µM is 30.8%.

What about the activity at 75 µM ([1]; dose 75 µM, Mean of replicates) of the same molecule?
The activity at 75 µM was 23.8%.

And the “Complex I activity, dose-response data” value [1, 30]?
The value was 15.504 and 26.993 and 22.808.

What about the activity at 75 µM [1, 30] of the same molecule?
The activity at 75 µM was 30%.

What about the IC50 [1] of the same molecule?
Its IC50 is 9.49 µM.

What about the CC50 at 2 days (in vitro) of the same molecule?
The CC50 at 2 days was 21.4 µM.

What about the LC50 (L1 wild-type C. elegans) of the same molecule?
The LC50 was 16 µM.
